Data as given in patent US20240124389A1, “COMPOUND OR SALT THEREOF, LIPID PARTICLES, AND PHARMACEUTICAL COMPOSITION” (FUJIFILM Corporation, priority 2021, published 2024).

Legend:
[1] = Particle size of EPO mRNA-encapsulating lipid particles; format: physicochemical
Method: (§1) The compounds described in Table 1, the neutral lipid, cholesterol (product name: Cholesterol HP; NIPPON FINE CHEMICAL CO., LTD.), and 1,2-dimyristoyl-rac-glycero-3-(methylpolyoxyethylene 2000) (hereinafter, called DMG-PEG2000) (product name: SUNBRIGHT® GM-020; NOF corporation) were dissolved in ethanol at a molar ratio in Table 1 such that the total lipid concentration became 20 mmol/L, thereby obtaining an oil phase.
(§2) As the neutral lipid, 1,2-distearoyl-sn-glycero-3-phosphocholine (product name: COATSOME® MC-8080; NOF corporation) (hereinafter, DSPC), or L-α-dioleoyl phosphatidylethanolamine (Hereinafter, DOPE) (product name: COATSOME® ME-8181; NOF corporation), or 1,2-dioleoyl-sn-glycero-3-phosphocholine (hereinafter, DOPC) (product name: COATSOME® MC-8181; NOF corporation) was used.
(§3) EPO mRNA (product name: CleanCap EPO mRNA (5moU); TriLink) was diluted with 50 mmol/L citrate buffer having a pH 4 such that the weight ratio of total lipid concentration to mRNA concentration is about 16:1 to 64:1, thereby obtaining a water phase. Then, the water phase and the oil phase were mixed together using NanoAssemblr (Precision NanoSystems) such that the volume ratio of water phase:oil phase was 3:1, and the mixed solution was 1.5-fold diluted with phosphate buffered saline (PBS), thereby obtaining a dispersion liquid of mRNA lipid particles. The dispersion liquid was dialyzed with a 10% aqueous sucrose solution using a dialysis cassette (Slide-A-Lyzer G2, MWCO: 10 kD, Thermo Fisher Scientific) to remove ethanol, thereby obtaining EPO mRNA-encapsulating lipid particles.
The particle size of the mRNA-encapsulating lipid particles was measured by 10-fold diluting the dispersion liquid of lipid particle with phosphate buffered saline (PBS) using Zeta-potential & Particle size Analyzer ELS-Z2 (Otsuka Electronics Co., Ltd.).

EPO mRNA = experiment: mRNA encapsulation rate of EPO mRNA-encapsulating lipid particles; format: physicochemical
Method: as §1, §2, §3
15 to 30 μL of a 3 mol/L aqueous sodium acetate solution and 4.5 to 9 μL of glycogen were added to 30 to 60 μL of the lipid particles retaining mRNA, and 0.75 to 1.5 mL of ethanol was added thereto, so that only the nucleic acids were precipitated while the lipid was dissolved. Then, the supernatant was removed by centrifugation. The precipitates were air-dried for 15 minutes or longer, then water was added thereto to redissolve the precipitates, and the concentration thereof was measured using Nanodrop NF1000 (Thermo Fisher Scientific), thereby quantifying the total mRNA concentration.
The mRNA concentration was quantified using a Quant-iT RiboGreen RNA Assay Kit (Thermo Fisher Scientific) according to the protocol. First, a 20×TE buffer included in the above-described kit was diluted with water, thereby obtaining a 1×TE buffer. TE represents Tris/EDTA (ethylenediaminetetraacetic acid). In order to quantify only mRNA in the outer water phase, the dispersion liquid of lipid particles retaining mRNA was 10,000-fold diluted with the 1×TE buffer. 100 μL of the 10,000-fold diluted dispersion liquid of lipid particles was put into a 96-well plate, then 100 μL of a RiboGreen reagent (reagent included in the Quanti-iT Ribogreen RNA Assay Kit described above) 2,000-fold diluted with the 1×TE buffer was added to a sample, and fluorescence (excitation wavelength: 485 nm, fluorescence wavelength: 535 nm) was measured using a plate reader Infinite F200 (TECAN), thereby quantifying the mRNA concentration in the outer water phase.
By using the quantification results of the total mRNA concentration and the mRNA concentration in the outer water phase that were obtained through the above steps, the mRNA encapsulation rate of the mRNA lipid particles was calculated according to the following Equation.
mRNA encapsulation rate (%)=(total mRNA concentration-mRNA concentration in outer water phase)/total mRNA concentration×100

human EPO = experiment: Measurement of EPO enzyme activity (EPO protein in blood plasma of mice after intravenous administration of EPO mRNA lipid particles); format: in vivo; conditions: C57BL/6J mice, tail-vein i.v., mRNA 0.1 mg/kg, plasma 20 to 24 hours
Method: as §1, §2, §3
The dispersion liquid of mRNA lipid particles prepared in above-described <Preparation of EPO mRNA-encapsulating lipid particles> was tail-vein intravenously administered to C57BL/6J mice at a mRNA dosage of 0.1 mg/kg. 20 to 24 hours after the administration, blood was collected from the caudal vena cava, thereby obtaining blood plasma. The human EPO enzyme activity was quantified by using the obtained blood plasma and ab119522 Erythropoietin (EPO) Human Elisa Kit (Abcam.plc). The quantitative value is described as a relative amount of EPO protein in a case where Comparative Example 1 is 1.

[2] = aminolipid 50 / DSPC 10 / cholesterol 38.5 / DMG-PEG2000 1.5 mol %, lipid/nucleic acid 20 wt/wt
[3] = aminolipid 50 / DOPE 10 / cholesterol 38.5 / DMG-PEG2000 1.5 mol %, lipid/nucleic acid 64 wt/wt

Structure (SMILES)	Particle size [1, 2]	Nucleic acid encapsulation rate (EPO mRNA; [2])	Particle size [1, 3]	Nucleic acid encapsulation rate (EPO mRNA; [3])	Relative amount of EPO protein (with respect to Comparative Example 1) (human EPO; [2])	Relative amount of EPO protein (with respect to Comparative Example 1) (human EPO; [3])
CCCCC/C=C\C/C=C\CCCCCCCCC(CCCCCCCC/C=C\C/C=C\CCCCC)OC(=O)CCCN(C)C [Comparative Example 1, reference compound]	89.0 nm	93.4%	–	–	1	–
CCCCCCCC/C=C\CCCCCCCC(=O)OCCN(CCOC(=O)OC(CCCCCC)CCCCCCCCC(=O)OCC(CCCCCC)CCCCCCCC)CCN(CC)CC (stereo not drawn) [Comparative Example 2, reference compound]	–	–	88.8 nm	100%	–	0.74
CCCCCCC(CCCC)COC(=O)CCCCCCCCC(CCCCCC)OC(=O)OCCN(CCCN(CC)CC)CCOC(=O)OC(CCCCCC)CCCCCCCCC(=O)OCC(CCCC)CCCCCC (stereo not drawn) [Example 3, Bis(2-butyloctyl) 16-(3-(diethylamino)propyl)-10,22-dihexyl-12,20-dioxo-11,13,19,21-tetraoxa-16-azahentriaco ntanedioate]	–	–	81.2 nm	97.8%	–	1.92
CCCCCCC(CCCC(=O)OCC(CCCCC)CCCCC)OC(=O)OCCN(CCOC(=O)OC(CCCCCC)CCCC(=O)OCC(CCCCC)CCCCC)CCN(CC)CC (stereo not drawn) [Example 10, bis(2-pentylheptyl) 11-(2-(diethylamino)ethyl)-5,17-dihexyl-7,15-dioxo-6,8,14,16-tetraoxa-11-azahenicosanedioate]	–	–	88.0 nm	100.0%	–	2.39
CCCCCCC(CCCC(=O)OCC(CCCCC)CCCCC)OC(=O)OCCN(CCOC(=O)OC(CCCCCC)CCCC(=O)OCC(CCCCC)CCCCC)CCN(C)C (stereo not drawn) [Example 11, Bis(2-pentylheptyl) 11-(2-(dimethylamino)ethyl)-5,17-dihexyl-7,15-dioxo-6,8,14,16-tetraoxa-11-azahenicosanedio ate]	–	–	73.2 nm	98.6%	–	2.70
CCCCCC(CCCCC)COC(=O)CCCC(C)OC(=O)OCCN(CCOC(=O)OC(C)CCCC(=O)OCC(CCCCC)CCCCC)CCN(CC)CC (stereo not drawn) [Example 19, Bis(2-pentylheptyl) 11-(2-(diethylamino)ethyl)-5,17-dimethyl-7,15-dioxo-6,8,14,16-tetraoxa-11-azahenicosanedio ate]	–	–	147.0 nm	100.0%	–	1.26

The next lines start with results.

Particle size [1, 2]	Nucleic acid encapsulation rate (EPO mRNA; [2])	Particle size [1, 3]	Nucleic acid encapsulation rate (EPO mRNA; [3])	Structure (SMILES)	Relative amount of EPO protein (with respect to Comparative Example 1) (human EPO; [2])	Relative amount of EPO protein (with respect to Comparative Example 1) (human EPO; [3])
–	–	75.9 nm	98.8%	CCCCCCC(CCCC(=O)OCC(CCCCC)CCCCC)OC(=O)OCCN(CCCCN(CC)CC)CCOC(=O)OC(CCCCCC)CCCC(=O)OCC(CCCCC)CCCCC (stereo not drawn) [Example 14, Bis(2-pentylheptyl) 11-(4-(diethylamino)butyl)-5,17-dihexyl-7,15-dioxo-6,8,14,16-tetraoxa-11-azahenicosanedioate]	–	3.85
–	–	76.8 nm	97.5%	CCCCCCC(CCCC(=O)OCC(CCCCC)CCCCC)OC(=O)OCCCN(CCCOC(=O)OC(CCCCCC)CCCC(=O)OCC(CCCCC)CCCCC)CCN(CC)CC (stereo not drawn) [Example 15, Bis(2-pentylheptyl) 12-(2-(diethylamino)ethyl)-5,19-dihexyl-7,17-dioxo-6,8,16,18-tetraoxa-12-azatricosanedioate]	–	1.92
–	–	69.4 nm	97.3%	CCCCCCC(CCCC(=O)OCC(CCCCC)CCCCC)OC(=O)OCCCCN(CCCCOC(=O)OC(CCCCCC)CCCC(=O)OCC(CCCCC)CCCCC)CCN(CC)CC (stereo not drawn) [Example 16, Bis(2-pentylheptyl) 13-(2-(diethylamino)ethyl)-5,21-dihexyl-7,19-dioxo-6,8,18,20-tetraoxa-13-azapentacosanedio ate]	–	2.53
–	–	81.7 nm	96.9%	CCCCCCC(CCC(=O)OCC(CCCCC)CCCCC)OC(=O)OCCN(CCOC(=O)OC(CCCCCC)CCC(=O)OCC(CCCCC)CCCCC)CCN(CC)CC (stereo not drawn) [Example 17, Bis(2-pentylheptyl) 10-(2-(diethylamino)ethyl)-4,16-dihexyl-6,14-dioxo-5,7,13,15-tetraoxa-10-azanonadecanedioate]	–	2.93
–	–	133.4 nm	100.0%	CCCCCC(CCCCC)COC(=O)CCCC(CC)OC(=O)OCCN(CCOC(=O)OC(CC)CCCC(=O)OCC(CCCCC)CCCCC)CCN(CC)CC (stereo not drawn) [Example 20, Bis(2-pentylheptyl) 11-(2-(diethylamino)ethyl)-5,17-dietyl-7,15-dioxo-6,8,14,16-tetraoxa-11-azahenicosanedioate]	–	3.22
–	–	76.8 nm	97.5%	CCCCCC(CCCCC)COC(=O)CCCC(CCCCC)OC(=O)OCCN(CCOC(=O)OC(CCCCC)CCCC(=O)OCC(CCCCC)CCCCC)CCN(CC)CC (stereo not drawn) [Example 23, Bis(2-pentylheptyl) 11-(2-(diethylamino)ethyl)-7,15-dioxo-5,17-dipentyl-6,8,14,16-tetraoxa-11-azahenicosanedioate]	–	3.60
–	–	80.6 nm	97.9%	CCCCCCCC(CCCC(=O)OCC(CCCCC)CCCCC)OC(=O)OCCN(CCOC(=O)OC(CCCCCCC)CCCC(=O)OCC(CCCCC)CCCCC)CCN(CC)CC (stereo not drawn) [Example 24, Bis(2-pentylheptyl) 11-(2-(diethylamino)ethyl)-5,17-diheptyl-7,15-dioxo-6,8,14,16-tetraoxa-11-azahenicosanedioate]	–	1.46
–	–	101.5 nm	99.8%	CCCCCCC(CCCC(=O)OCCC12CC3CC(CC(C3)C1)C2)OC(=O)OCCN(CCOC(=O)OC(CCCCCC)CCCC(=O)OCCC12CC3CC(CC(C3)C1)C2)CCN(CC)CC (stereo not drawn) [Example 27, Bis (2-(((3r,5r,7r)-adamantan-1-yl)ethyl)11-(2-(diethylamino)ethyl)-5,17-dihexyl-7,15-dioxo-6,8,1 4,16-tetraoxa-11-azahenicosanedioate]	–	3.60
–	–	165.3 nm	95.5%	CCCCCCOC(=O)CCCC(CCCC(=O)OCCCCCC)OC(=O)OCCN(CCOC(=O)OC(CCCC(=O)OCCCCCC)CCCC(=O)OCCCCCC)CCN(CC)CC [Example 32, Dihexyl 11-(2-(diethylamino)ethyl)-5,17-bis(4-(hexyloxy)-4-oxobutyl)-7,15-dioxo-6,8,14,16-tetraoxa-11-azahenicosanedioate]	–	4.03
